ChEMBL document CHEMBL1201862, “PubChem BioAssay data set” (2004)
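These data come from cells grown in 96-well plates and exposed to compound for 48 hours at five concentrations. The concentration for 50% growth inhibition is given as GI50.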 Calls of active or inactive are those of the source. Rule as the data show it: active = GI50 up to about 1.1 µM and inactive = higher.

How the values were obtained:
Assay in all cases: growth of human tumour cells (NCI), 48 h
786-0 = system: 786-0
A498 = system: A498
ACHN = system: ACHN
CAKI-1 = system: CAKI-1
CCRF-CEM = system: CCRF-CEM
COLO 205 = system: COLO 205
DU-145 = system: DU-145
EKVX = system: EKVX
HCC 2998 = system: HCC 2998
HCT-116 = system: HCT-116
HCT-15 = system: HCT-15
HL-60 = system: HL-60
HOP-62 = system: HOP-62
HOP-92 = system: HOP-92
HT-29 = system: HT-29
Hs-578T = system: Hs-578T
IGROV-1 = system: IGROV-1
KM12 = system: KM12
M14 = system: M14
MCF7 = system: MCF7
MDA-MB-231 = system: MDA-MB-231
MDA-MB-435 = system: MDA-MB-435
MDA-N = system: MDA-N
MOLT-4 = system: MOLT-4
NCI-H226 = system: NCI-H226
NCI-H23 = system: NCI-H23
NCI-H460 = system: NCI-H460
NCI-H522 = system: NCI-H522
NCI/ADR-RES = system: NCI/ADR-RES
OVCAR-3 = system: OVCAR-3
OVCAR-4 = system: OVCAR-4
OVCAR-5 = system: OVCAR-5
OVCAR-8 = system: OVCAR-8
RPMI-8226 = system: RPMI-8226
RXF 393 = system: RXF 393
SF-268 = system: SF-268
SF-295 = system: SF-295
SF-539 = system: SF-539
SK-MEL-5 = system: SK-MEL-5
SK-OV-3 = system: SK-OV-3
SN12C = system: SN12C
SNB-75 = system: SNB-75
SR = system: SR
SW-620 = system: SW-620
T47D = system: T47D
TK-10 = system: TK-10
U-251 = system: U-251
UACC-257 = system: UACC-257
UACC-62 = system: UACC-62
UO-31 = system: UO-31
A549 = system: A549
PC-3 = system: PC-3
SK-MEL-28 = system: SK-MEL-28
K562 = system: K562
Malme-3M = system: Malme-3M
SK-MEL-2 = system: SK-MEL-2
SNB-19 = system: SNB-19

Measured: GI50

CCCCc1ccc(C#CC#Cc2ccc(CCCC)s2)s1
inactive: 786-0 > 100 µM | A498 > 100 µM | ACHN > 100 µM | CAKI-1 > 100 µM | CCRF-CEM 4.39 µM | COLO 205 > 100 µM | DU-145 > 100 µM | EKVX > 100 µM | HCC 2998 > 100 µM | HCT-116 > 100 µM | HL-60 24.8 µM | HOP-62 > 100 µM | HOP-92 > 100 µM | HT-29 > 100 µM | Hs-578T > 100 µM | IGROV-1 > 100 µM | KM12 > 100 µM | M14 > 100 µM | MCF7 > 100 µM | MDA-MB-231 > 100 µM | MDA-MB-435 > 100 µM | MDA-N > 100 µM | MOLT-4 > 100 µM | NCI-H226 > 100 µM | NCI-H23 > 100 µM | NCI-H460 > 100 µM | NCI-H522 > 100 µM | NCI/ADR-RES > 100 µM | OVCAR-3 > 100 µM | OVCAR-4 > 100 µM | OVCAR-5 > 100 µM | OVCAR-8 > 100 µM | RPMI-8226 > 100 µM | RXF 393 > 100 µM | SF-268 > 100 µM | SF-295 > 100 µM | SF-539 > 100 µM | SK-MEL-5 > 100 µM | SK-OV-3 > 100 µM | SN12C > 100 µM | SNB-75 > 100 µM | SR > 100 µM | SW-620 > 100 µM | T47D > 100 µM | TK-10 > 100 µM | U-251 > 100 µM | UACC-257 > 100 µM | UACC-62 > 100 µM | UO-31 > 100 µM
> 100 µM: HCT-15

CC[C@H](CCCCC1CC[C@@H]2CC(=O)C[C@H]12)OC (stereo partly specified)
inactive: A498 > 100 µM | A549 > 100 µM | DU-145 > 100 µM | EKVX > 100 µM | MCF7 > 100 µM | MDA-N > 100 µM | OVCAR-3 > 100 µM | OVCAR-5 > 100 µM | PC-3 > 100 µM | RXF 393 > 100 µM | SF-268 > 100 µM | SF-295 > 100 µM | SK-MEL-28 > 100 µM | SN12C > 100 µM | SW-620 > 100 µM | U-251 > 100 µM | UO-31 93.8 µM
> 100 µM: HCT-15

O=C(COc1ccc(Cl)c(Cl)c1)N(Cc1ccccc1)Cc1ccc[n+](Cc2ccc(Cl)cc2S(=O)(=O)F)c1
31.5 µM: HCT-15
inactive: 786-0 > 100 µM | A498 > 100 µM | A549 > 100 µM | ACHN 56.4 µM | CAKI-1 > 100 µM | COLO 205 72.3 µM | DU-145 > 100 µM | HCT-116 > 100 µM | HL-60 30.9 µM | HOP-62 > 100 µM | HOP-92 50.8 µM | HT-29 > 100 µM | Hs-578T 40.8 µM | IGROV-1 40.6 µM | K562 53 µM | KM12 23.4 µM | M14 38.5 µM | MCF7 46.3 µM | MDA-MB-231 14.8 µM | MDA-MB-435 29.9 µM | MOLT-4 21.4 µM | Malme-3M 20 µM | NCI-H226 > 100 µM | NCI-H23 41.3 µM | NCI-H460 > 100 µM | NCI-H522 94.6 µM | NCI/ADR-RES > 100 µM | OVCAR-3 65.5 µM | OVCAR-4 > 100 µM | OVCAR-5 > 100 µM | OVCAR-8 > 100 µM | PC-3 > 100 µM | RPMI-8226 13.3 µM | RXF 393 > 100 µM | SF-268 > 100 µM | SF-295 > 100 µM | SF-539 12.9 µM | SK-MEL-28 26.8 µM | SK-MEL-2 25.4 µM | SK-MEL-5 22.6 µM | SK-OV-3 > 100 µM | SN12C > 100 µM | SNB-19 37.8 µM | SNB-75 > 100 µM | SR 23.2 µM | SW-620 54.2 µM | T47D 59.7 µM | TK-10 53.3 µM | U-251 25.8 µM | UACC-257 35.4 µM | UACC-62 62.1 µM | UO-31 > 100 µM
